Consider 3 molecules from ChEMBL document CHEMBL2040762, “Hypnotic effects and GABAergic mechanism of licorice (Glycyrrhiza glabra) ethanol extract and its major flavonoid constituent glabrol” (Bioorg Med Chem, 2012).

For test [1], the system named is Mus musculus. Nature of the test: Hypnotic activity in fasted C57BL/6N mouse assessed as decrease in pentobarbital-induced sleep latency at 10 mg/kg, po administered 45 mins prior to pentobarbital-induction coadministered with flumazenil by polysomnographic analysis. It is filed as functional, organism-based. More on the design: dose 10 mg/kg.
Test [2] concerns Mus musculus. The test is described as follows: Hypnotic activity in fasted C57BL/6N mouse assessed as […] in latency of pentobarbital-induced sleep at 10 mg/kg, po administered 45 mins prior to pentobarbital-induction by polysomnographic analysis. The class given is functional, organism-based. Further details: dose 10 mg/kg.
In test [3] the test system is Mus musculus. Nature of the test: Hypnotic activity in fasted C57BL/6N mouse assessed as increase in pentobarbital-induced sleep duration at 10 mg/kg, po administered 45 mins prior to pentobarbital-induction coadministered with flumazenil by polysomnographic analysis. It is filed as functional, organism-based. More on the design: dose 10 mg/kg.
Test [4] concerns Mus musculus. The test is described as follows: Hypnotic activity in fasted C57BL/6N mouse assessed as increase in pentobarbital-induced sleep duration at 2.5 mg/kg, po administered 45 mins prior to pentobarbital-induction coadministered with flumazenil by polysomnographic analysis. It is filed as functional, organism-based. Further details: dose 2.5 mg/kg.
Test [5] has as its system Mus musculus. Nature of the test: Hypnotic activity in fasted C57BL/6N mouse assessed as increase in pentobarbital-induced sleep duration at 10 mg/kg, po administered 45 mins prior to pentobarbital-induction by polysomnographic analysis. The class given is functional, organism-based. More on the design: dose 10 mg/kg.
In test [6] the test system is Mus musculus. Nature of the test: Hypnotic activity in fasted C57BL/6N mouse assessed as […] in latency of pentobarbital-induced sleep at 50 mg/kg, po administered 45 mins prior to pentobarbital-induction by polysomnographic analysis. It is filed as functional, organism-based. Further details: dose 50 mg/kg.
Test [7] relates to Mus musculus. Nature of the test: Hypnotic activity in fasted C57BL/6N mouse assessed as increase in pentobarbital-induced sleep duration at 50 mg/kg, po administered 45 mins prior to pentobarbital-induction by polysomnographic analysis. It is filed as functional, organism-based. More on the design: dose 50 mg/kg.
Test [8] can be described thus: Displacement of [3H]flumazenil from GABA(A)-BZD receptor in Sprague-Dawley rat cerebral cortex membranes after 40 mins by liquid scintillation counting. It is filed as cell membranes, Membrane.
Test [9] has as its system Mus musculus. The test is described as follows: Hypnotic activity in po dosed fasted C57BL/6N mouse assessed as increase in pentobarbital-induced sleep duration administered 45 mins prior to pentobarbital-induction by polysomnographic analysis. The class given is functional, organism-based.
Test [10] concerns Mus musculus. Nature of the test: Hypnotic activity in po dosed fasted C57BL/6N mouse assessed as decrease in latency of pentobarbital-induced sleep administered 45 mins prior to pentobarbital-induction by polysomnographic analysis. The class given is functional, organism-based.
For test [11], the system named is Mus musculus. Nature of the test: Hypnotic activity in fasted C57BL/6N mouse assessed as decrease in latency of pentobarbital-induced sleep at 50 mg/kg, po administered 45 mins prior to pentobarbital-induction coadministered with flumazenil by polysomnographic analysis. Further details: dose 50 mg/kg. The class given is functional, organism-based.
The test system of test [12] is Mus musculus. Nature of the test: Hypnotic activity in fasted C57BL/6N mouse assessed as increase in pentobarbital-induced sleep duration at 50 mg/kg, po administered 45 mins prior to pentobarbital-induction coadministered with flumazenil by polysomnographic analysis. The class given is functional, organism-based. Further details: dose 50 mg/kg.
Test [13] relates to Mus musculus. The test is described as follows: Hypnotic activity in po dosed fasted C57BL/6N mouse assessed as increase in pentobarbital-induced non-rapid eye movement sleep duration at 2 mg/kg, po administered 45 mins prior to pentobarbital-induction measured up to 2 hrs by polysomnographic analysis. It is filed as functional, organism-based. More on the design: dose 2 mg/kg.

The subject of test [14] is Mus musculus. Nature of the test: Hypnotic activity in po dosed fasted C57BL/6N mouse assessed as effect on pentobarbital-induced rapid eye movement sleep duration at 2 mg/kg, po administered 45 mins prior to pentobarbital-induction by polysomnographic analysis. The class given is functional, organism-based. Further details: dose 2 mg/kg.
The subject of test [15] is Mus musculus. Nature of the test: Hypnotic activity in po dosed fasted C57BL/6N mouse assessed as decrease in latency of pentobarbital-induced sleep at 2 mg/kg, po administered 45 mins prior to pentobarbital-induction by polysomnographic analysis. Further details: dose 2 mg/kg. It is filed as functional, organism-based.
Test [16] relates to Mus musculus. The test is described as follows: Hypnotic activity in fasted C57BL/6N mouse assessed as increase in pentobarbital-induced sleep duration at 0.5 mg/kg, po administered 45 mins prior to pentobarbital-induction coadministered with flumazenil by polysomnographic analysis. More on the design: dose 0.5 mg/kg. The class given is functional, organism-based.
Test [17] concerns Mus musculus. The test is described as follows: Hypnotic activity in po dosed fasted C57BL/6N mouse assessed as decrease in pentobarbital-induced non-rapid eye movement sleep duration at 2 mg/kg, po administered 45 mins prior to pentobarbital-induction by polysomnographic analysis. It is filed as functional, organism-based. More on the design: dose 2 mg/kg.
Test [18] concerns Mus musculus. The test is described as follows: Hypnotic activity in po dosed fasted C57BL/6N mouse assessed as change in pentobarbital-induced non-rapid eye movement sleep duration at 2 mg/kg, po administered 45 mins prior to pentobarbital-induction measured up to 3 hrs by polysomnographic analysis. More on the design: dose 2 mg/kg. It is filed as functional, organism-based.

The test system of test [19] is Mus musculus. Nature of the test: Hypnotic activity in po dosed fasted C57BL/6N mouse assessed as decrease in pentobarbital-induced non-rapid eye movement sleep EEG delta activity at 2 mg/kg, po administered 45 mins prior to pentobarbital-induction by polysomnographic analysis. The class given is functional, organism-based. Further details: dose 2 mg/kg.
In test [20] the test system is Mus musculus. Nature of the test: Hypnotic activity in fasted C57BL/6N mouse assessed as increase in pentobarbital-induced sleep duration at 2 mg/kg, po administered 45 mins prior to pentobarbital-induction coadministered with flumazenil by polysomnographic analysis. It is filed as functional, organism-based. Further details: dose 2 mg/kg.
Test [21] relates to Mus musculus. The test is described as follows: Hypnotic activity in po dosed fasted C57BL/6N mouse assessed as change in pentobarbital-induced rapid eye movement sleep duration at 2 mg/kg, po administered 45 mins prior to pentobarbital-induction measured up to 3 hrs by polysomnographic analysis. It is filed as functional, organism-based. Further details: dose 2 mg/kg.
Test [22] deals with Mus musculus. Nature of the test: Hypnotic activity in fasted C57BL/6N mouse assessed as decrease in pentobarbital-induced sleep latency at 2 mg/kg, po administered 45 mins prior to pentobarbital-induction coadministered with flumazenil by polysomnographic analysis. The class given is functional, organism-based. More on the design: dose 2 mg/kg.

Each structure is given as a SMILES string. Calls of active or inactive are those of the source. The calls are words filed in the database; no cut-off is given here.

Consider `Cc1ccc(-c2nc3ccc(C)cn3c2CC(=O)N(C)C)cc1`, for which the outcome in the test on Mus musculus [1], in the test on Mus musculus [3] and in the test on Mus musculus [4] was inactive. Besides, the result with Mus musculus [2] and in the test on Mus musculus [5] was Active.

Turning to `CC(C)=CCc1cc([C@@H]2CC(=O)c3ccc(O)c(CC=C(C)C)c3O2)ccc1O` [GLABROL], the result in the test with Mus musculus [6] and in the test on Mus musculus [7] was Active. The molecule further yielded a Ki in test [8] of 1630 nM. For the same molecule, the Activity entry with Mus musculus [9] and in the test on Mus musculus [10] was “Dose-dependent effect” each time. Further, the outcome in the test with Mus musculus [11] and with Mus musculus [12] was inactive.

`CN1C(=O)CN=C(c2ccccc2)c2cc(Cl)ccc21`: the outcome in the test on Mus musculus [13], with Mus musculus [15], with Mus musculus [17] and with Mus musculus [19] was Active. For the same molecule, the result in the test on Mus musculus [14], with Mus musculus [16], with Mus musculus [18], in the test with Mus musculus [20], in the test on Mus musculus [21] and with Mus musculus [22] was inactive.
